± gives the standard deviation.
Legend:
[1] = chemical recovery into PDMS from spiked human plasma; higher = better extraction; conditions: pooled human plasma, extraction method: PES with PDMS
[2] = chemical recovery by SPE of plasma after PDMS sampling; higher = better extraction; conditions: pooled human plasma, extraction method: HLB SPE of plasma after PES
[3] = chemical recovery from spiked human plasma; higher = better extraction; conditions: pooled human plasma
[4] = extraction method: PES+SPE (3 d PDMS equilibration then HLB SPE)
[5] = extraction method: SPE only (HLB 96-well)
[6] = extraction method: SPE only (HLB 96-well), PES comparison experiment
[7] = extraction method: solvent precipitation (ACN + hexane)
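Throughout, for chemical recovery by SPE of plasma after PDMS sampling: over 400 spiked chemicals quantified by LC-HRMS or GC-HRMS via internal standard calibration, recovery relative to spike mix added to unspiked plasma extract to correct matrix effects.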

Structure (SMILES) | chemical recovery into PDMS ([1]; equilibration time (d): 1) | chemical recovery into PDMS ([1]; equilibration time (d): 3) | chemical recovery into PDMS ([1]; equilibration time (d): 6) | chemical recovery by SPE of plasma ([2]; equilibration time (d): 1) | chemical recovery by SPE of plasma ([2]; equilibration time (d): 3) | chemical recovery by SPE of plasma ([2]; equilibration time (d): 6) | chemical recovery [3, 4] | chemical recovery [3, 5] | chemical recovery [3, 6] | chemical recovery [3, 7]
CC(C)(C)Nc1nc(N)nc(Cl)n1 [Desethylterbutylazine] | 38 ± 1.5% | 40.9 ± 0.82% | 42.7 ± 1.9% | 10 ± 1.1% | 9.29 ± 1% | 6.03 ± 0.45% | 40.7 ± 4.8% | 42.1 ± 2.3% | 46.9 ± 5.4% | –
CC12CC3CC(C)(C1)CC(N)(C3)C2 [Memantine] | 3.61 ± 1.9% | 4.46 ± 2.7% | 3.08 ± 2.4% | 6.36 ± 0.42% | 7.03 ± 1.2% | 5.53 ± 0.96% | 14.8 ± 4.7% | 46.6 ± 1.4% | 45.1 ± 6.8% | 47.1 ± 4.5%
CCOP(=O)(OCC)OC(=CCl)c1ccc(Cl)cc1Cl [Chlorfenvinphos] | 43.3 ± 1.2% | 44.3 ± 3.6% | 44.1 ± 0.92% | 0.151 ± 0.26% | – | – | – | – | 49.5 ± 8.3% | –
CC(C)(C)c1ccc(C(=O)CCCN2CCC(OC(c3ccccc3)c3ccccc3)CC2)cc1 [Ebastin] | 0.444 ± 0.073% | 0.712 ± 0.075% | 0.469 ± 0.24% | 0.574 ± 0.23% | – | – | – | – | 36.2 ± 9% | –
c1ccc(-c2cccc3ccccc23)cc1 [1-Phenylnaphthalene] | 70.3 ± 20% | 70.6 ± 5.2% | 78.1 ± 11% | – | 2.49 ± 2.2% | – | 45.1 ± 7.6% | 12.2 ± 3% | 17.3 ± 3% | –
CCOC1Oc2ccc(OS(C)(=O)=O)cc2C1(C)C (stereo unspecified) [Ethofumesate] | 40.5 ± 3.4% | 42.3 ± 2.6% | 44 ± 0.63% | 0.62 ± 1.1% | 1.94 ± 1.7% | 0.896 ± 1.6% | 43.9 ± 5.2% | 48.8 ± 1.2% | 52.8 ± 9.5% | –
CNC(=O)CSP(=O)(OC)OC [Omethoate] | 4.04 ± 3.2% | 5.92 ± 3.5% | 5.94 ± 4.2% | – | 13.5 ± 2.3% | – | – | 12.4 ± 5.1% | 40.1 ± 8.6% | –
CCc1cccc(C)c1N(C(=O)CS(=O)(=O)O)[C@@H](C)C(=O)O [Metolachlor-NOA 413-173] | 1.97 ± 4.4% | 9.48 ± 1.4% | 7.51 ± 7% | – | 27.8 ± 9.2% | 34.7 ± 5.3% | – | 35.6 ± 3.7% | 22.7 ± 9.6% | –
Cc1nc2ccccc2s1 [2-Methylbenzothiazole] | 8.73 ± 6% | – | 5.9 ± 0.22% | 0.0827 ± 0.14% | 0.253 ± 0.11% | 0.0669 ± 0.12% | – | 0.149 ± 0.18% | 0.912 ± 0.53% | –
CCC(CC)Nc1c([N+](=O)[O-])cc(C)c(C)c1[N+](=O)[O-] [Pendimethalin] | 45.8 ± 3% | 46.4 ± 4.9% | 47.5 ± 6.3% | – | 0.1 ± 0.17% | – | – | 39 ± 11% | 32.3 ± 7.6% | 87.6 ± 9.3%
COCC(=O)N(c1c(C)cccc1C)C(C)C(=O)OC (stereo unspecified) [Metalaxyl] | 33.1 ± 0.4% | 36.7 ± 3.2% | 36.9 ± 0.38% | 5.41 ± 0.46% | 5.16 ± 0.64% | 0.955 ± 1.6% | – | – | 50.3 ± 7.6% | 70.2 ± 2.1%
C#C[C@]1(O)CC[C@H]2[C@@H]3CCC4=CC(=O)CC[C@@H]4[C@H]3CC[C@@]21C [Norethindrone] | 40.1 ± 2.1% | 46.1 ± 2.3% | 47.6 ± 1.2% | – | 4.09 ± 7.1% | 3.48 ± 6% | – | – | 54.2 ± 6.8% | –
S=C1NCCN1 [Ethylenethiourea] | – | – | 0.013 ± 0.022% | – | 0.0882 ± 0.15% | 0.15 ± 0.26% | 0.046 ± 0.019% | 0.261 ± 0.34% | – | –
CC(C)c1ccc(NC(=O)N(C)C)cc1 [Isoproturon] | 37.1 ± 2.3% | 40.1 ± 2.3% | 40.4 ± 0.94% | 5.76 ± 0.47% | 5.5 ± 0.88% | 3.08 ± 0.39% | 46.2 ± 4.8% | 43.1 ± 2.7% | 53.4 ± 6.7% | 74.8 ± 3.5%
c1ccc2[nH]nnc2c1 [1H-Benzotriazole] | 4.24 ± 0.36% | 6.44 ± 1% | 7.25 ± 1.5% | 47.4 ± 3.6% | 46.6 ± 3.2% | 39.9 ± 2.1% | 51.7 ± 3.9% | 48.2 ± 2.7% | 53.9 ± 5.8% | 62.5 ± 4.5%
CCC(=O)O[C@]1(C(=O)CCl)[C@@H](C)C[C@H]2[C@@H]3CCC4=CC(=O)C=C[C@]4(C)[C@@]3(F)[C@@H](O)C[C@@]21C [Clobetasol propionate] | 28.2 ± 4.4% | 36.9 ± 2.1% | 37.2 ± 3.9% | 5.08 ± 8.8% | 7.02 ± 6.3% | – | – | – | 44.8 ± 8.7% | –
CC(C)(Oc1ccc(CCNC(=O)c2ccc(Cl)cc2)cc1)C(=O)O [Bezafibrate] | 0.000935 ± 0.0016% | 0.00082 ± 0.0014% | – | 52.7 ± 6.2% | 56.9 ± 2.6% | 53.6 ± 2.6% | 47.8 ± 3.6% | 45.5 ± 3.2% | 52.7 ± 4.8% | 74.9 ± 2.3%
Clc1ccc2[nH]nnc2c1 [5-Chlorobenzotriazole] | 0.3 ± 0.043% | 0.905 ± 0.21% | 1.34 ± 0.43% | 55.2 ± 9.2% | 55.2 ± 5% | 52.3 ± 6.8% | 44.7 ± 2.5% | 41.8 ± 2.6% | 52.8 ± 6.1% | 59.3 ± 5%
CCOC(=O)c1ccc(N)cc1 [Benzocain] | 23.5 ± 1.9% | 23.3 ± 1.7% | 26.3 ± 2.2% | 14.6 ± 2.6% | 18.4 ± 1.5% | 14.4 ± 2.3% | 32.9 ± 5.6% | 39.3 ± 3.4% | – | 64.9 ± 4.3%
CCOc1nc2cccc(C(=O)O)c2n1Cc1ccc(-c2ccccc2-c2nnn[nH]2)cc1 [Candesartan] | – | – | 0.00245 ± 0.0094% | 48 ± 8.7% | 50.1 ± 3% | 47.8 ± 4.2% | 41.3 ± 6.7% | 42 ± 8% | 36.9 ± 3.9% | 58.8 ± 12%
CCC(=O)O[C@]1(C(=O)SCF)[C@H](C)C[C@H]2[C@@H]3C[C@H](F)C4=CC(=O)C=C[C@]4(C)[C@@]3(F)[C@@H](O)C[C@@]21C [Fluticasone propionate] | 32.3 ± 3% | 39.3 ± 3.7% | 41.3 ± 2.3% | – | 4.78 ± 8.3% | – | – | – | 41.1 ± 5.8% | –
Cn1ncc(N)c(Cl)c1=O [Methyldesphenylchloridazon] | 1.07 ± 0.26% | 1.44 ± 0.31% | 1.24 ± 1.1% | 24.3 ± 8.3% | 21.3 ± 7.1% | 25 ± 8.3% | – | – | 35.8 ± 1.2% | –
O=Cc1ccccc1Nc1ccccc1Cl [2-(2-(Chlorophenyl)amino)benzaldehyde] | 36.6 ± 1.5% | 40.9 ± 4% | 43.5 ± 3.3% | 0.712 ± 0.79% | 0.276 ± 0.48% | – | – | – | 23.9 ± 4.7% | –
Clc1ccc(COC(Cn2ccnc2)c2ccc(Cl)cc2Cl)c(Cl)c1 (stereo unspecified) [Miconazole] | 33.6 ± 2.4% | 34.9 ± 3.2% | 31.5 ± 2.8% | 0.659 ± 0.14% | 0.405 ± 0.14% | 0.117 ± 0.082% | – | 43.2 ± 6.1% | 40.4 ± 10% | 85.3 ± 8.5%
Cc1cc(Cl)ccc1OCC(=O)O [MCPA] | 0.00252 ± 0.0044% | 0.00652 ± 0.0057% | – | 56.1 ± 11% | 64.2 ± 5.6% | 58.8 ± 3.1% | 46.2 ± 2.6% | 43.1 ± 3% | 59.9 ± 5.7% | 71.8 ± 7.4%
CCCN(CCOc1c(Cl)cc(Cl)cc1Cl)C(=O)NC=O | 39.6 ± 3.2% | 42.2 ± 4.2% | 43.2 ± 2.2% | 3.65 ± 3.2% | 2.44 ± 2.1% | 0.703 ± 1.2% | – | – | 43.4 ± 6.2% | –
O=c1ccc2ccccc2[nH]1 [2-Hydroxyquinoline] | 10.9 ± 0.65% | 15.6 ± 2% | 17.1 ± 2.4% | 36.8 ± 5.3% | 30.9 ± 3.2% | 24 ± 2.1% | 57.1 ± 5.5% | 43 ± 3.2% | 52.9 ± 8.4% | 78.2 ± 3.6%
